Assay [1] deals with T1, Galectin-8 (Homo sapiens, UniProt O00214).
T1 sequence (O00214 whole entry): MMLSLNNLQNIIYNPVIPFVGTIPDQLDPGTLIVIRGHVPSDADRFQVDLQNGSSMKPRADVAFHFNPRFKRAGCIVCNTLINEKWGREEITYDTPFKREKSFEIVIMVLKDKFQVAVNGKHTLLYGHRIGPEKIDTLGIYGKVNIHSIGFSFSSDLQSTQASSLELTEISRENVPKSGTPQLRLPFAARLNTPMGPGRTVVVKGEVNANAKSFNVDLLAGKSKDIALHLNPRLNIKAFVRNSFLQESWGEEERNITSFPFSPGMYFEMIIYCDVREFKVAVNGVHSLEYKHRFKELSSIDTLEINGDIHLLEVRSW
The assay can be described thus: Antagonist activity against human galectin 8 N-terminal domain by fluorescence polarization assay.

Assay [2] concerns the target Galectin-3 (Homo sapiens, UniProt P17931). Nature of the assay: Antagonist activity against human galectin 3 by fluorescence polarization assay.
In assay [3] the target is T2, Galectin-1 (Homo sapiens, UniProt P09382). Nature of the assay: Antagonist activity against human galectin 1 by fluorescence polarization assay.
The target of assay [4] is Galectin-9 (Homo sapiens, UniProt O00182). Nature of the assay: Antagonist activity against human galectin 9 N-terminal domain by fluorescence polarization assay.
In assay [5] the target is Galectin-7 (Homo sapiens, UniProt P47929). Nature of the assay: Antagonist activity against human galectin 7 by fluorescence polarization assay.
The target in assay [6] is T2, Galectin-1. The note with it: 10 mM.
Description: Antagonist activity against human galectin 1 at 10 mM by fluorescence polarization assay

Activity calls are given as the source filed them. No cut-off for these calls is given here.

T2 sequence (P09382 whole entry, the tested form may be a part): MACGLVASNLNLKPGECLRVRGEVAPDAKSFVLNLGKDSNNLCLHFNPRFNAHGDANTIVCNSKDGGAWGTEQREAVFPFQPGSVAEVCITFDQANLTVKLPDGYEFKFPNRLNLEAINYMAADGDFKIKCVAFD
Galectin-3, sequence (P17931 whole entry): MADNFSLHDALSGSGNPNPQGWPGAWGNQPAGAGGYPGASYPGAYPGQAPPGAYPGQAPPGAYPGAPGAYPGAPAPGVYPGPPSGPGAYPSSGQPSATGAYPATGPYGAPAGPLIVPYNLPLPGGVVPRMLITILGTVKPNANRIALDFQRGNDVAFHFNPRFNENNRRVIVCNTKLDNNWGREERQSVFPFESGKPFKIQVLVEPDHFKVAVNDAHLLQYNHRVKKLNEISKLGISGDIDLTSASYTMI
Galectin-7, sequence (P47929 whole entry): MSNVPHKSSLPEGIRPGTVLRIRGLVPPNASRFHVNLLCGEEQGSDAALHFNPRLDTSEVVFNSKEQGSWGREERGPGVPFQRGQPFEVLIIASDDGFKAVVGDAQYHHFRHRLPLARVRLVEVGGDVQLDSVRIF
Galectin-9, sequence (O00182 whole entry, the tested form may be a part): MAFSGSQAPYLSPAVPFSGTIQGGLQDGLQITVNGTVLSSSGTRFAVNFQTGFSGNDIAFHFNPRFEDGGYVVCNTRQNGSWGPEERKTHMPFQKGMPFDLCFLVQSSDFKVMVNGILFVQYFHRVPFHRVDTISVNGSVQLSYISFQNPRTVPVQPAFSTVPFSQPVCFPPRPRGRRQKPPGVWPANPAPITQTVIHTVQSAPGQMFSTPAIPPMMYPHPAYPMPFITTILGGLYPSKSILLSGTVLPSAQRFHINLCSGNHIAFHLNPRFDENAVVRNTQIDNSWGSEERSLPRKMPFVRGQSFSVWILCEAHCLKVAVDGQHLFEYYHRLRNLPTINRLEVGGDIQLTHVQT

For the compound `CO[C@@H]1O[C@H](CO)[C@@H](O[C@@H]2O[C@H](CO)[C@H](O)[C@H](O)[C@H]2O)[C@H](O)[C@H]1O`, the Kd in assay [1] turned out to be 62 µM; in assay [2], 220 µM; in assay [3] (read-out: Kd) it was 0.19 mM; in assay [4], 23 µM; in assay [5] (read-out: Kd) it was 110 µM.
For the compound `CO[C@H]1O[C@H](CO)[C@H](O)[C@H](OCc2cc3ccccc3o/c2=N\S(=O)(=O)c2ccccc2)[C@H]1O`, the dissociation constant (Kd) in assay [1] is 390 µM; in assay [2] it was 81 µM; in assay [3] (read-out: Kd), 0.65 mM; in assay [4], 76 µM; in assay [5] (read-out: Kd) it was 1100 µM.
The corresponding values for `CO[C@H]1O[C@H](CO)[C@H](O)[C@H](OCc2cc3ccccc3o/c2=N\S(=O)(=O)c2ccccc2)[C@H]1OC(C)=O` are 270 µM, 130 µM, 4.5 mM, 45 µM and 230 µM.
As to `CO[C@H]1O[C@H](CO)[C@H](O)[C@H](O)[C@H]1O`, the inhibition entry in assay [6] is “inactive”. In addition, the values for the dissociation constant Kd in assay [4] and in assay [5] (read-out: Kd) were 2800 µM and 11000 µM, respectively.
Turning to `CS[C@@H]1O[C@H](CO)[C@H](O)[C@H](n2cc(C(=O)NCc3ccccc3)nn2)[C@H]1O`, the Kd entry was “Not Active” in assay [3] and greater than 5000 µM in assay [4].
Take `Cc1ccc(S(=O)(=O)/N=c2\oc3ccccc3cc2CO[C@@H]2O[C@H](CO)[C@@H](O[C@@H]3O[C@H](CO)[C@H](O)[C@H](O)[C@H]3O)[C@H](O)[C@H]2O)cc1`: the Kd in assay [1] is 140 µM; in assay [2], 130 µM; in assay [3] (read-out: Kd) it was 0.5 mM; in assay [4] it was 80 µM; in assay [5] it was “Not Active”.
With `Cc1ccc(S(=O)(=O)/N=c2\oc3ccccc3cc2CO[C@@H]2O[C@H](CO)[C@H](O)[C@H](O)[C@H]2O)cc1`, the Kd in assay [1] was 3900 µM; in assay [2], 10000 µM; in assay [3] (read-out: Kd), 3.6 mM; in assay [4], 7100 µM; in assay [5], “Not Active”.
`CO[C@H]1O[C@H](CO)[C@H](O)[C@H](OCc2cc3ccccc3oc2=O)[C@H]1O`: the equilibrium dissociation constant (Kd) in assay [1] was 180 µM; in assay [2], 78 µM; in assay [3] (read-out: Kd), 1.9 mM; in assay [4], 180 µM; in assay [5] (read-out: Kd), 850 µM.
As for `CS[C@@H]1O[C@H](CO)[C@H](O)[C@H](NC(=O)c2ccc(C)cc2)[C@H]1O`, the dissociation constant Kd in assay [1] was greater than 2000 µM; in assay [3] (read-out: Kd), 0.98 mM; in assay [4], 1500 µM; in assay [5] (read-out: Kd), greater than 2000 µM.
As for `CO[C@H]1O[C@H](CO)[C@H](O)[C@H](OCc2cc3ccccc3o/c2=N\S(=O)(=O)c2ccc(C)cc2)[C@H]1O`, the Kd in assay [1] came out at 250 µM; in assay [2] it was 120 µM; in assay [3] (read-out: Kd), 1.7 mM; in assay [4], 140 µM; in assay [5] (read-out: Kd), 1700 µM.
With `CO[C@H]1O[C@H](CO)[C@H](O)[C@H](OCc2cc3ccccc3o/c2=N\S(=O)(=O)c2ccc(C)cc2)[C@H]1OC(C)=O`, the Kd in assay [1] came out at 170 µM; in assay [2] it was 97 µM; in assay [3] (read-out: Kd) it was 5.1 mM; in assay [4], 36 µM; in assay [5] (read-out: Kd), 180 µM.

Source of the values: ChEMBL document CHEMBL3351844, “Synthesis and evaluation of iminocoumaryl and coumaryl derivatized glycosides as galectin antagonists” (Bioorg Med Chem Lett, 2014).
